{"source": "patent US20100041089A1", "about": "“IMPROVED METHOD FOR DETECTING CHEMICAL […]” (priority 2006, published 2010)", "test_system": "yeast genes (expressed mRNA)", "assay": "DNA chip measurement of expressed mRNA of yeast genes after culture with a toxic chemical substance", "format": "cell-based, Saccharomyces cerevisiae S288C", "protocol": "Yeast (Saccharomyces cerevisiae S288C (a SUC2mal mel gap2 CUP1)) were cultured at 25° C. on YPD medium (yeast extract 1%, polypeptone 2%, glucose 2%). One of toxic chemical substances was added to the cell at logarithmic growth phase, and the cell was further cultured for two hours. Cell was cultured without any chemical substance in the same condition, and was used as a control. Concentrations of the chemical substances were defined to inhibit the growth of the yeast but not lead to death.\nAfter the completion of cultivation, the culture was centrifuged to collect the cells. To the cells, sodium acetate buffer (50 mM sodium acetate, 10 mM EDTA, 1% SDS) was added, and the mixture was shaken at 65° C. for five minutes, followed by returning to room temperature, and obtaining the supernatant, which procedure was repeated two times. To the supernatant, ½ amount of a solution of phenol/chloroform (1:1) was added, and the mixture was centrifuged to give a supernatant, an equal amount of chloroform was added, and the mixture was centrifuged to give a supernatant. To the supernatant, an equal amount of isopropanol containing 0.3 M sodium acetate was added, and the mixture was allowed to stand at room temperature for 30 minutes, after which the mixture was centrifuged to give sediment of the whole RNAs. Seventy % ethanol was added to the sediment, and the mixture was again centrifuged to give sediment, which was then dried and dissolved in water. mRNA was isolated from the whole RNAs as followings. In view of the fact that a poly A chain is attached to the 3′ terminus of mRNA, a polynucleotide having a poly T structure which was immobilized on the surface of latex beads was used to trap the mRNA, and then the mRNA was washed and eluted with spine column (Oligotex-dT30<Super>mRNA Purification Kit, Takara). Reverse transcription of the mRNA was conducted with a reverse transcriptase (Super Script II Reverse Transcriptase; catalogue No. 18064-014, GibcoBRL) using fluorescence-labeled nucleotides to give cDNAs that were introduced with Cy3-dUTP or Cy5-dUTP during the reverse transcription.\nThe labeled cDNAs were dissolved in TE buffer (10 mM Tris-HCl/1 mM EDTA, pH 8.0), and the solution was dropped on the DNA chip containing the whole genes of yeast (DNA Chip Research Inc. Japan) so that the cDNAs were hybridized on the DNA chip at 65° C. for over 12 hours. The fluoresces intensity of the DNA chip was read with a scanner, and the ratio relative to the fluorescence intensity resulting from the absence of chemical substance was estimated as the following, which is shown in Tables 1 to 9.\nIn the Tables, “Intensity” indicated in the rightmost column is a value of the level of expressed mRNA of each gene in control cells as divided by the average level of the expressions of the whole genes. A gene of which mRNA level is lower in control, and is higher in cases of addition of chemical substance, is especially useful in the detection of toxic substances.\nHere, when a ratio of an amount of mRNA expressed in the presence of the chemical substance to an amount of mRNA expressed in the absence of the chemical substance is two or more, then it is considered significant."}
{"compound": "C[S+](C)[O-]", "note": "[(15), Dimethyl sulfoxide]", "values": [{"measurement": "The level of expressed mRNA in the presence of chemical substance/The level of expressed mRNA in the absence of chemical substance", "setting": "yeast gene YJL152W, cultured two hours with substance", "value": 0.8}, {"measurement": "The level of expressed mRNA in the presence of chemical substance/The level of expressed mRNA in the absence of chemical substance", "setting": "yeast gene YJL186W, cultured two hours with substance", "value": 2.5}, {"measurement": "level of expressed mRNA in the presence of chemical substance / level in the absence of chemical substance", "setting": "yeast gene YJR030C, cultured two hours with the chemical substance", "value": 0.8}, {"measurement": "The level of expressed mRNA in the presence of chemical substance/The level of expressed mRNA in the absence of chemical substance", "setting": "yeast gene YJR074W, cultured two hours with substance", "value": 3.4}, {"measurement": "level of expressed mRNA in the presence of chemical substance / level in the absence of chemical substance", "setting": "yeast gene YKL051W, cultured two hours with the chemical substance", "value": 1.5}, {"measurement": "level of expressed mRNA in the presence of chemical substance / level in the absence of chemical substance", "setting": "yeast gene YKL097C, cultured two hours with the chemical substance", "value": 0.8}, {"measurement": "level of expressed mRNA in the presence of chemical substance / level in the absence of chemical substance", "setting": "yeast gene YKL100C, cultured two hours with the chemical substance", "value": 1.7}, {"measurement": "level of expressed mRNA in the presence of chemical substance / level in the absence of chemical substance", "setting": "yeast gene YKR040C, cultured two hours with the chemical substance", "value": 1.1}, {"measurement": "The level of expressed mRNA in the presence of chemical substance/The level of expressed mRNA in the absence of chemical substance", "setting": "yeast gene YKR046C, cultured two hours with substance", "value": 2.9}, {"measurement": "The level of expressed mRNA in the presence of chemical substance/The level of expressed mRNA in the absence of chemical substance", "setting": "yeast gene YLR041W, cultured two hours with the chemical substance", "value": 1.3}, {"measurement": "The level of expressed mRNA in the presence of chemical substance/The level of expressed mRNA in the absence of chemical substance", "setting": "yeast gene YLR132C, cultured two hours with substance", "value": 2.3}, {"measurement": "The level of expressed mRNA in the presence of chemical substance/The level of expressed mRNA in the absence of chemical substance", "setting": "yeast gene YLR149C, cultured two hours with substance", "value": 1.3}, {"measurement": "The level of expressed mRNA in the presence of chemical substance/The level of expressed mRNA in the absence of chemical substance", "setting": "yeast gene YLR151C, cultured two hours with the substance", "value": 0.7}, {"measurement": "The level of expressed mRNA in the presence of chemical substance/The level of expressed mRNA in the absence of chemical substance", "setting": "yeast gene YLR152C, cultured two hours with substance", "value": 0.8}, {"measurement": "The level of expressed mRNA in the presence of chemical substance/The level of expressed mRNA in the absence of chemical substance", "setting": "yeast gene YLR205C, cultured two hours with substance", "value": 2.5}, {"measurement": "level of expressed mRNA in the presence of chemical substance / level in the absence of chemical substance", "setting": "yeast gene YLR226W, cultured two hours with the chemical substance", "value": 1.3}, {"measurement": "The level of expressed mRNA in the presence of chemical substance/The level of expressed mRNA in the absence of chemical substance", "setting": "yeast gene YLR304C, mitochondria-located protein gene, cultured two hours with substance", "value": 1.6}, {"measurement": "The level of expressed mRNA in the presence of chemical substance/The level of expressed mRNA in the absence of chemical substance", "setting": "yeast gene YLR307W", "value": 3.9}, {"measurement": "level of expressed mRNA in the presence of chemical substance / level in the absence of chemical substance", "setting": "yeast gene YLR338W, cultured two hours with the chemical substance", "value": 1.5}, {"measurement": "The level of expressed mRNA in the presence of chemical substance/The level of expressed mRNA in the absence of chemical substance", "setting": "yeast gene YLR391W", "value": 3.9}, {"measurement": "level of expressed mRNA in the presence of chemical substance / level in the absence of chemical substance", "setting": "yeast gene YLR392C, cultured two hours with the chemical substance", "value": 0.5}, {"measurement": "The level of expressed mRNA in the presence of chemical substance/The level of expressed mRNA in the absence of chemical substance", "setting": "yeast gene YLR395C, mitochondria-located protein gene, cultured two hours with substance", "value": 0.4}, {"measurement": "level of expressed mRNA in the presence of chemical substance / level in the absence of chemical substance", "setting": "yeast gene YLR415C, cultured two hours with the chemical substance", "value": 1.0}, {"measurement": "level of expressed mRNA in the presence of chemical substance / level in the absence of chemical substance", "setting": "yeast gene YLR427W, cultured two hours with the chemical substance", "value": 0.8}, {"measurement": "The level of expressed mRNA in the presence of chemical substance/The level of expressed mRNA in the absence of chemical substance", "setting": "yeast gene YLR444C, cultured two hours with the substance", "value": 1.3}, {"measurement": "level of expressed mRNA in the presence of chemical substance / level in the absence of chemical substance", "setting": "yeast gene YML013W, cultured two hours with the chemical substance", "value": 2.2}, {"measurement": "level of expressed mRNA in the presence of chemical substance / level in the absence of chemical substance", "setting": "yeast gene YML029W, cultured two hours with the chemical substance", "value": 0.8}, {"measurement": "level of expressed mRNA in the presence of chemical substance / level in the absence of chemical substance", "setting": "yeast gene YML041C, cultured two hours with the chemical substance", "value": 1.0}, {"measurement": "level of expressed mRNA in the presence of chemical substance / level in the absence of chemical substance", "setting": "yeast gene YML079W, cultured two hours with the chemical substance", "value": 0.3}, {"measurement": "The level of expressed mRNA in the presence of chemical substance/The level of expressed mRNA in the absence of chemical substance", "setting": "yeast gene YML128C, cultured two hours with substance", "value": 2.6}, {"measurement": "The level of expressed mRNA in the presence of chemical substance/The level of expressed mRNA in the absence of chemical substance", "setting": "yeast gene YMR031C, cultured two hours with the substance", "value": 0.7}, {"measurement": "level of expressed mRNA in the presence of chemical substance / level in the absence of chemical substance", "setting": "yeast gene YMR068W, cultured two hours with the chemical substance", "value": 2.2}, {"measurement": "level of expressed mRNA in the presence of chemical substance / level in the absence of chemical substance", "setting": "yeast gene YMR071C, cultured two hours with the chemical substance", "value": 0.8}, {"measurement": "The level of expressed mRNA in the presence of chemical substance/The level of expressed mRNA in the absence of chemical substance", "setting": "yeast gene YMR083W, mitochondria-located protein gene, cultured two hours with substance", "value": 1.3}, {"measurement": "The level of expressed mRNA in the presence of chemical substance/The level of expressed mRNA in the absence of chemical substance", "setting": "yeast gene YMR090W, cultured two hours with substance", "value": 1.9}, {"measurement": "level of expressed mRNA in the presence of chemical substance / level in the absence of chemical substance", "setting": "yeast gene YMR160W, cultured two hours with the chemical substance", "value": 1.5}, {"measurement": "level of expressed mRNA in the presence of chemical substance / level in the absence of chemical substance", "setting": "yeast gene YNL026W, cultured two hours with the chemical substance", "value": 0.8}, {"measurement": "level of expressed mRNA in the presence of chemical substance / level in the absence of chemical substance", "setting": "yeast gene YNL058C, cultured two hours with the chemical substance", "value": 2.2}, {"measurement": "level of expressed mRNA in the presence of chemical substance / level in the absence of chemical substance", "setting": "yeast gene YNL063W, cultured two hours with the chemical substance", "value": 0.7}]}
